# Measurements published in patent US10537601B2, “Method of isolating anti-viral ingredients from Baphicacanthus cusia, compositions comprising them and their medical use” (priority 2016, dated 2020).
# Like-named read-outs stand apart in the source and are kept apart here.
# Tested on: influenza virus A/PR/8/34 (H1N1)
# Experiment: organism not typed
# Assay type: cell-based
# Details: read-out: IC50 (anti-viral activity, 50% inhibitory concentration)
# [1] = MDCK cells infected with 100TCID50 of influenza A/PR/8/34 (H1N1), treatment for 48 h, Reed-Muench method
Structure (SMILES),IC50 [1],"IC50 (MDCK, 48 h)"
"NC(=O)c1ncn([C@@H]2O[C@H](CO)[C@@H](O)[C@H]2O)n1 [ribavirin, reference compound]",30.4 µM,
"O=Cc1c[nH]c2ccccc12 [Compound of Formula 7, 1H-indole-3-carbaldehyde]",42 µM,
"O=C1COc2ccccc2N1 [Compound of Formula 9, 2H-1,4-benzoxazin-3-one]",> 200 µM,
"C=C(CO)[C@@H]1CC[C@]2(C)CC[C@]3(C)[C@H](CC[C@@H]4[C@@]5(C)CC[C@H](O)C(C)(C)C5CC[C@]43C)[C@@H]12 (stereo partly drawn) [Compound of Formula 19, lup-20(29)-en-3β, 30-diol]",,33.6 µM
"O=C1Nc2ccccc2O[C@@H]1O [Compound of Formula 5, 2-hydroxy-1,4-benzoxazin-3-one]",> 200 µM,
